In ChEMBL document CHEMBL5608207, “Development of narrow-spectrum topoisomerase-targeting antibacterials against mycobacteria” (Eur J Med Chem, 2024):
In brackets after ≈: the same amount, converted by molar mass. Activity calls are given as the source filed them. No cut-off for these calls is given here.

What was measured:
[1] = test system: Mycolicibacterium smegmatis; assay: Antimycobacterial activity against Mycobacterium smegmatis MC2 incubated for 2 days by resazurin reduction microplate assay; assay type: functional; conditions: MC2, 48 h, time 2 day
[2] = test system: Mycobacteroides abscessus; assay: Antimycobacterial activity against Mycobacterium abscessus RIVM incubated for 1 day by resazurin reduction microplate assay; assay type: functional; conditions: 24 h
[3] = test system: Mycobacterium tuberculosis; assay: Antimycobacterial activity against Mycobacterium tuberculosis H37Rv ATCC 25618 assessed as reduction in viability incubated for 6 days by resazurin reduction microplate assay; assay type: functional; conditions: H37Rv ATCC 25618, 144 h, time 6 day
Escherichia coli [4] = assay: Antibacterial activity against Escherichia coli ATCC 25922 incubated for 18 hrs by serial broth microdilution method; assay type: functional
Staphylococcus aureus = assay: Antibacterial activity against Staphylococcus aureus ATCC 29213 incubated for 18 hrs by serial broth microdilution method; assay type: functional
Pseudomonas aeruginosa [5] = assay: Antibacterial activity against Pseudomonas aeruginosa ATCC 27853 incubated for 18 hrs by serial broth microdilution method; assay type: functional
Acinetobacter baumannii [6] = assay: Antibacterial activity against Acinetobacter baumannii ATCC17978 incubated for 18 hrs by serial broth microdilution method; assay type: functional
Klebsiella pneumoniae = assay: Antibacterial activity against Klebsiella pneumoniae ATCC10031 incubated for 18 hrs by serial broth microdilution method; assay type: functional
Enterobacter cloacae = assay: Antibacterial activity against Enterobacter cloacae ATCC13047 incubated for 18 hrs by serial broth microdilution method; assay type: functional
[7] = test system: Mycobacterium tuberculosis; assay: Antimycobacterial activity against Mycobacterium tuberculosis H37Rv ATCC 25618 assessed as reduction in viability at 5 uM incubated for 6 days by resazurin reduction microplate assay; assay type: functional
[8] = test system: Mycobacterium tuberculosis; assay: (§1) Antimycobacterial activity against GFP-expressing Mycobacterium tuberculosis H37Rv infected in PMA-treated THP-1 cells assessed as bacterial viability at 10 uM pre-infected for 3 hrs prior to gentamycin addition for 1 hr followed by washout and compound addition measured after 4 days by fluorescence microscopic analysis (reference value: 100%); assay type: functional; conditions: time 4 day
[9] = test system: Mycobacterium tuberculosis; assay: as §1, with “number of viable macrophages” for “bacterial viability”, “analysis” for “analysis (reference value: 100%)”; assay type: functional; conditions: time 4.0 day
THP-1 [10] = assay: Cytotoxicity against human THP-1 cells pretreated with PMA for 48 hrs followed by washout and compound addition for 5 days by resazurin sodium salt method; assay type: toxicity, cell-based; conditions: thp-1, 120 h, time 5 day
THP-1 [11] = assay: Cytotoxicity against replicating human THP-1 cells; assay type: toxicity, cell-based
[12] = Inhibition of Mycobacterium tuberculosis DNA gyrase B
Pseudomonas aeruginosa [13] = assay: Antibacterial activity against Pseudomonas aeruginosa; assay type: functional
Acinetobacter baumannii [14] = assay: Antibacterial activity against Acinetobacter baumannii; assay type: functional
[15] = molecular target: DNA topoisomerase 2-alpha (Homo sapiens) (UniProt P11388); assay: Inhibition of human DNA topoisomerase II alpha assessed as residual activity at 100 uM using supercoiled pNO1 plasmid as substrate incubated for 30 mins by diamond dye staining based fluorescence microplate reader assay relative to control
DNA topoisomerase 2-alpha (Homo sapiens), sequence (P11388 whole entry): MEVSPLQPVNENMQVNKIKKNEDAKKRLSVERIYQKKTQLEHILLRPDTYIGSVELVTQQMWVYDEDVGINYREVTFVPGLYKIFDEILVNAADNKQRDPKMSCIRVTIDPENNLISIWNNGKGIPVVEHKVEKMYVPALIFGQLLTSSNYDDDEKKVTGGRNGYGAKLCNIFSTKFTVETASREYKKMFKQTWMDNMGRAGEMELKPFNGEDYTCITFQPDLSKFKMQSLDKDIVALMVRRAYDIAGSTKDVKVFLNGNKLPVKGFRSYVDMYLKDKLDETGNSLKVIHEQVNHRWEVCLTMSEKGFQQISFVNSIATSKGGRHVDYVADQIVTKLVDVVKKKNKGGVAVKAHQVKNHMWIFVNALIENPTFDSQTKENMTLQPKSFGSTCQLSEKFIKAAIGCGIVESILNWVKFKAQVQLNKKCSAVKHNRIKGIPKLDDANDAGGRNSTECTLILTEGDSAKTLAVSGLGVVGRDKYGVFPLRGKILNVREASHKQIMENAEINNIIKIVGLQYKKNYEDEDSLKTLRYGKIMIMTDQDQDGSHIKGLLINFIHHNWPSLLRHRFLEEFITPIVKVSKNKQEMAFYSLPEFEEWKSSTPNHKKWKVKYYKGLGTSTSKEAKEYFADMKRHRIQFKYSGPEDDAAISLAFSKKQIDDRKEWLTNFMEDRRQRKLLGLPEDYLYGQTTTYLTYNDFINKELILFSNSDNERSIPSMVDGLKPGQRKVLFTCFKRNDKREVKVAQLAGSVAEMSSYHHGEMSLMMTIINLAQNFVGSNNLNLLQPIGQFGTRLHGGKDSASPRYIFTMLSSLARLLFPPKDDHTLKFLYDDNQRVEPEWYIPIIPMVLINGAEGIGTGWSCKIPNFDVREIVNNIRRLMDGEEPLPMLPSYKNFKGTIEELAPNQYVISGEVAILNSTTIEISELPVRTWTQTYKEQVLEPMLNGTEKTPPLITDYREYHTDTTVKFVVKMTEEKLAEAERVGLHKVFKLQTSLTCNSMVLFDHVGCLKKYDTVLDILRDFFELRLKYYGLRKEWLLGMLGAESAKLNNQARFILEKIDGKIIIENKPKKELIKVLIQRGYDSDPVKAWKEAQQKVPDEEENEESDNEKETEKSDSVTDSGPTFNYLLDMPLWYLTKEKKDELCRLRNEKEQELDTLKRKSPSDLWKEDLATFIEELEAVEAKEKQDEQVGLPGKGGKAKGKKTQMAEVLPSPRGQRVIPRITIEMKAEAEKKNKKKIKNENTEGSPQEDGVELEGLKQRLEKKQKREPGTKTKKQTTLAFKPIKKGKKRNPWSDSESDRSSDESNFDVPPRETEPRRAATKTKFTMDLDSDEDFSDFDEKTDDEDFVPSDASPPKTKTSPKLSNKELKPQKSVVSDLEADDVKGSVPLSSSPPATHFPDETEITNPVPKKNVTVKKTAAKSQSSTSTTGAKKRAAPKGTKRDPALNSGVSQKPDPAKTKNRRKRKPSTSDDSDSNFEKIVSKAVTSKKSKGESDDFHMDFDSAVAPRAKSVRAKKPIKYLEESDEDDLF

[16] = molecular target: DNA topoisomerase 2-alpha (Homo sapiens) (UniProt P11388); assay: Inhibition of human DNA topoisomerase II alpha assessed as residual activity at 10 uM using supercoiled pNO1 plasmid as substrate incubated for 30 mins by diamond dye staining based fluorescence microplate reader assay relative to control
THP-1 [17] = assay: Cytotoxicity against human THP-1 cells assessed as reduction in viability at 40 uM pretreated with PMA for 48 hrs followed by washout and compound addition for 5 days by resazurin sodium salt method; assay type: toxicity, cell-based; conditions: thp-1, 120 h, time 5 day
THP-1 [18] = assay: Cytotoxicity against replicating human THP-1 cells upto 40 uM; assay type: toxicity, cell-based; conditions: thp-1, 40 µM
[19] = test system: Mycobacterium tuberculosis; assay: as §1, with “viability” for “viability at 10 uM”, “analysis” for “analysis (reference value: 100%)”; assay type: functional, organism-based; conditions: dose 1-30 µM, time 4.0 day
[20] = test system: Mycobacterium tuberculosis; assay: as §1, with “increase in number of surviving macrophages” for “bacterial viability”, “10 to 30” for “10”, “analysis” for “analysis (reference value: 100%)”; assay type: functional, organism-based; conditions: dose 10-30 µM, time 4.0 day
Escherichia coli [21] = assay: Antibacterial activity against Escherichia coli ATCC 25922 harboring deltaTolC mutant incubated for 18 hrs by serial broth microdilution method; assay type: functional
Segatella copri = assay: Antibacterial activity against Prevotella copri DSM 18205 measured at 15 mins interval for 24 hrs by broth microdilution method; assay type: functional
[22] = test system: Bacteroides thetaiotaomicron; assay: Antibacterial activity against Bacteroides thetaiotaomicron DSM 2079 measured at 15 mins interval for 24 hrs by broth microdilution method; assay type: functional
Anaerostipes hadrus = assay: Antibacterial activity against Anaerostipes hadrus DSM 3319 measured at 15 mins interval for 24 hrs by broth microdilution method; assay type: functional
[23] = molecular target: DNA gyrase subunit A/DNA gyrase subunit B (Mycobacterium tuberculosis (strain ATCC 25618 / H37Rv), UniProt P9WG45+P9WG47); assay: Inhibition of Mycobacterium tuberculosis DNA gyrase using […] DNA as substrate incubated for 30 mins by gel based method; assay type: protein-complex assay
DNA gyrase subunit A/DNA gyrase subunit B, sequence (P9WG45 whole entry): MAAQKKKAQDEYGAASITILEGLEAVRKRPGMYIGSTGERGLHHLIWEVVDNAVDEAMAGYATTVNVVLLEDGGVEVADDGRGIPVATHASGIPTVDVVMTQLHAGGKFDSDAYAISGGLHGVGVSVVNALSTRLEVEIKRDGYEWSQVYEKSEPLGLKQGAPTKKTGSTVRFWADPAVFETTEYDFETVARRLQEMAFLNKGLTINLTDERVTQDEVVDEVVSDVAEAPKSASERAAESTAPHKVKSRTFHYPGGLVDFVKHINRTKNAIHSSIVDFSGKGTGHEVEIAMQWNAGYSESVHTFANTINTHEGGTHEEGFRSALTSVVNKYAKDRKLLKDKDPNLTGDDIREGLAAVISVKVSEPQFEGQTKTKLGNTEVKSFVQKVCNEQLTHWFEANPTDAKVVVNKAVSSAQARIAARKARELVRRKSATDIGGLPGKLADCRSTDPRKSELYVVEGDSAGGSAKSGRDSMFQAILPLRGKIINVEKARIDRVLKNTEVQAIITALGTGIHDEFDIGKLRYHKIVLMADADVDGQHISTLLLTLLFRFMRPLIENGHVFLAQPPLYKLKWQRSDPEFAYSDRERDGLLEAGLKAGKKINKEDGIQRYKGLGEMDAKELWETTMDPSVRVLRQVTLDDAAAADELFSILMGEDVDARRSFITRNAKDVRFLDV
DNA gyrase subunit A/DNA gyrase subunit B, sequence (P9WG47 whole entry): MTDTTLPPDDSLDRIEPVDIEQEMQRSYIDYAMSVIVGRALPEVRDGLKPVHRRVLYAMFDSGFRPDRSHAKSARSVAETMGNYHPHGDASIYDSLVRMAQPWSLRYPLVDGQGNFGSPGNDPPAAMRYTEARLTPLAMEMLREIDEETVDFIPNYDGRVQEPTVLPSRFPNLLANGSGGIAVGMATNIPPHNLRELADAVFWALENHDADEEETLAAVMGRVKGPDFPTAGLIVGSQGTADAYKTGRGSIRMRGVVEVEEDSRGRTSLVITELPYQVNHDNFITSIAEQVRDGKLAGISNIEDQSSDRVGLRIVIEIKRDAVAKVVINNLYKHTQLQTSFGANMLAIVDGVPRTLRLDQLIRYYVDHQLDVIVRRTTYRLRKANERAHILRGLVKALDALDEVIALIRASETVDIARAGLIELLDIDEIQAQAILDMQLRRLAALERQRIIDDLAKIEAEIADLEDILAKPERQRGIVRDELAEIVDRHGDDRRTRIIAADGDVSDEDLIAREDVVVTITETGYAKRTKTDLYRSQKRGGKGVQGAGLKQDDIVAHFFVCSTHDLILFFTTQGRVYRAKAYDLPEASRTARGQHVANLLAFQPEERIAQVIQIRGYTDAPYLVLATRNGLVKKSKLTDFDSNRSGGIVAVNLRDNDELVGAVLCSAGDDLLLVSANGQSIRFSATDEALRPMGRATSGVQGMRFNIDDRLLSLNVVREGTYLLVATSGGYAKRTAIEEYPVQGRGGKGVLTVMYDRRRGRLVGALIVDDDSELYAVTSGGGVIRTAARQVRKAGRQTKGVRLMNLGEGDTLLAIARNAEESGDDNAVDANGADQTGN

[24] = Inhibition of Mycobacterium smegmatis DNA gyrase using […] DNA as substrate incubated for 30 mins by gel based method; set-up: species or system Mycolicibacterium smegmatis
DNA gyrase = DNA gyrase (Escherichia coli, UniProt P0AES4+P0AES6); assay: Inhibition of Escherichia coli DNA gyrase using relaxed pNO1 as substrate measured after 30 mins by SybrGOLD staining based fluorescence microplate reader analysis; assay type: protein-complex assay
[25] = Inhibition of Escherichia coli DNA topoisomerase IV […] using supercoiled pNO1 as substrate measured after 30 mins by SybrGOLD staining based fluorescence microplate reader analysis
MCF7 = assay: Cytotoxicity against human MCF7 cells assessed as residual activity at 50 uM incubated for 72 hrs by MTS assay; assay type: functional
[26] = Acute toxicity in zebrafish embryo assessed as effect on embryo survival upto 5 mM measured for 4 days; set-up: species or system Danio rerio; conditions: in vivo, 96 h, 5000 µM, time 4 day
[27] = Acute toxicity in zebrafish embryo assessed as effect on embryo development upto 5 mM measured for 4 days; set-up: species or system Danio rerio; conditions: in vivo, 96 h, 5000 µM, time 4 day
[28] = Acute toxicity in zebrafish embryo assessed as change in behavior upto 5 mM measured for 4 days; set-up: species or system Danio rerio; conditions: in vivo, 96 h, 5000 µM, time 4 day
hERG (KCNH2) [29] = molecular target: T1, hERG (KCNH2) (Homo sapiens, UniProt Q12809); assay: Inhibition of human ERG expressed in HEK293 cells at 10 uM by whole-cell patch clamp method relative to control; assay type: toxicity, cell-based; conditions: HEK293 cells that express hERG
T1 sequence (Q12809 whole entry): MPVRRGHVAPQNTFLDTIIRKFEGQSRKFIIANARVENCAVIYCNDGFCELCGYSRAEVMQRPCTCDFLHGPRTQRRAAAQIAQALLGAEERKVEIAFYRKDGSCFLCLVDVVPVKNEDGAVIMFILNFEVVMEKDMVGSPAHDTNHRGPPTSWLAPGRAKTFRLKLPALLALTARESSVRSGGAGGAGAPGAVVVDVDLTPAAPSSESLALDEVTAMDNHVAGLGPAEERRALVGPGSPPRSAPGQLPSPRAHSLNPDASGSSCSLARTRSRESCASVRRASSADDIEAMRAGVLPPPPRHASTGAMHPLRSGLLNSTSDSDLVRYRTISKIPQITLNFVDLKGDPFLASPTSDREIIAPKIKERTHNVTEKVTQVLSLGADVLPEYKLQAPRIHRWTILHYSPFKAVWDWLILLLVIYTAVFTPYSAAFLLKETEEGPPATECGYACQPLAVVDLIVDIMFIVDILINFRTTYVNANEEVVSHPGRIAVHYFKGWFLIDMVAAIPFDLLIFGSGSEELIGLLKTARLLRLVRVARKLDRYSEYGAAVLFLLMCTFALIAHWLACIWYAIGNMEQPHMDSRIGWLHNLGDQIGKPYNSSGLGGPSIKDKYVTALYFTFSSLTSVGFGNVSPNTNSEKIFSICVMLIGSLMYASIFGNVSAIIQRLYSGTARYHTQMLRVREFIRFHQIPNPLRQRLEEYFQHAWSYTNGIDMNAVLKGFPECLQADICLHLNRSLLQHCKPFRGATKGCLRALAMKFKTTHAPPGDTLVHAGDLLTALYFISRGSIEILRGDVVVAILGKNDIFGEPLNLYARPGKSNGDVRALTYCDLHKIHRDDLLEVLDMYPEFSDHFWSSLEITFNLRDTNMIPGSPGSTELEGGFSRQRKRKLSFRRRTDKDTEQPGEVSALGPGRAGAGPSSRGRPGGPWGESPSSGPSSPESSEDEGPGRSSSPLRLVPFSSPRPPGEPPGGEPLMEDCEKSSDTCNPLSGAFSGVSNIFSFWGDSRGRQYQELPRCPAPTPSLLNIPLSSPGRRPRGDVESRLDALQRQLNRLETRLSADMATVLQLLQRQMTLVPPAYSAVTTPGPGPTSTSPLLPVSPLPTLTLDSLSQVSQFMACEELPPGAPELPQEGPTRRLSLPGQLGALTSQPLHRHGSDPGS

hERG (KCNH2) [30] = molecular target: T1, hERG (KCNH2); assay: Inhibition of human ERG expressed in HEK293 cells at 50 uM by whole-cell patch clamp method relative to control; assay type: toxicity, cell-based; conditions: HEK293 cells that express hERG
[31] = Kinetic solubility of compound in PBS at 100 uM incubated for 20 hrs in shaker by LC-MS/MS analysis; assay type: physicochemical; conditions: read-out: Kinetic_solubility

| Compound | MIC90 [1] | MIC90 [2] | MIC90 [3] | MIC90 (Escherichia coli [4]) | MIC90 (Staphylococcus aureus) | MIC90 (Pseudomonas aeruginosa [5]) | MIC90 (Acinetobacter baumannii [6]) | MIC90 (Klebsiella pneumoniae) | Activity [15] | Activity [16] | also measured |
| --- | --- | --- | --- | --- | --- | --- | --- | --- | --- | --- | --- |
| Cc1[nH]c(C(=O)Nc2nc3c(OC(CN4CCOCC4)C4CC4)cc(C(=O)O)cc3s2)cc1F (stereo unspecified) | 2.5 µM (≈ 1.22 µg/mL) | 1.25 µM (≈ 0.611 µg/mL) | > 20 µM | > 131 µM | 131 µM (≈ 64 µg/mL) | > 131 µM | > 131 µM | 33 µM (≈ 16.1 µg/mL) | – | – | MIC90 (Enterobacter cloacae): > 131 µM |
| Cc1[nH]c(C(=O)Nc2nc3c(OC(CN4CC[N+](C)(C)CC4)c4ccccc4)cc(C(=O)O)cc3s2)c(Cl)c1Cl (stereo unspecified) | 0.32 µM | 0.63 µM | 0.31 µM | – | – | – | – | – | – | – | Activity (Staphylococcus aureus): inactive |
| Cc1[nH]c(C(=O)Nc2nc3ccc(C(=O)O)cc3s2)c(Cl)c1Cl | – | – | – | – | – | – | – | – | – | – | Activity ([7]; time 6 day): 57%; Activity [8]: 14%; Activity [9]: inactive; Activity (THP-1 [10]): Non-Toxic; Activity (THP-1 [11]): Non-Toxic; IC50 [12]: 24.5 nM; MIC (Pseudomonas aeruginosa [13]): 8 µg/mL (≈ 21.6 µM); MIC (Acinetobacter baumannii [14]): 4 µg/mL (≈ 10.8 µM) |
| Cc1[nH]c(C(=O)Nc2nc3c(OC(CN4CCN(C)CC4)c4ccccc4)cc(C(=O)O)cc3s2)c(Cl)c1Cl (stereo unspecified) | 2.5 µM (≈ 1.47 µg/mL) | 2.5 µM (≈ 1.47 µg/mL) | 20 µM (≈ 11.8 µg/mL) | – | – | – | – | – | – | – | – |
| Cc1[nH]c(C(=O)Nc2nc3c(OC(CN(C)C)c4ccccc4)cc(C(=O)O)cc3s2)cc1F (stereo unspecified) | 1.25 µM (≈ 0.603 µg/mL) | 0.31 µM (≈ 0.15 µg/mL) | 2.5 µM (≈ 1.21 µg/mL) | 133 µM (≈ 64.2 µg/mL) | 33 µM (≈ 15.9 µg/mL) | 33 µM (≈ 15.9 µg/mL) | > 133 µM | 2 µM (≈ 0.965 µg/mL) | 99% | 99% | MIC90 (Enterobacter cloacae): > 133 µM |
| NNC(=O)c1ccncc1 [ISONIAZID] | – | – | – | – | – | – | – | – | – | – | Activity [8]: 4.9% |
| Cc1[nH]c(C(=O)Nc2nc3c(OC(CN)c4ccccc4)cc(C(=O)O)cc3s2)c(Cl)c1Cl (stereo unspecified) | 1.25 µM (≈ 0.632 µg/mL) | 0.63 µM (≈ 0.318 µg/mL) | 1.25 µM (≈ 0.632 µg/mL) | – | – | – | – | – | – | – | – |
| Cc1[nH]c(C(=O)Nc2nc3c(OC(C)C4CCNCC4)cc(C(=O)O)cc3s2)c(Cl)c1Cl (stereo unspecified) | 2.5 µM (≈ 1.24 µg/mL) | 2.5 µM (≈ 1.24 µg/mL) | 0.63 µM (≈ 0.313 µg/mL) | > 120 µM | > 120 µM | > 120 µM | > 120 µM | > 120 µM | 96% | 96% | Activity (THP-1 [17]): Non-Toxic; Activity (THP-1 [18]): Non-Toxic; Activity [19]: Dose-Dependent Effect; Activity [20]: Active; MIC90 (Escherichia coli [21]): 2 µM (≈ 0.995 µg/mL); MIC (Segatella copri): > 20 µM; MIC [22]: > 20 µM; MIC (Anaerostipes hadrus): > 20 µM; IC50 [23]: 4.1 nM; IC50 [24]: 5.7 nM; IC50 (DNA gyrase): < 10 nM; IC50 [25]: 99 nM; Activity (MCF7): 81%; Activity [26]: Non-Toxic; Activity [27]: Non-Toxic; Activity [28]: Non-Toxic; inhibition at 10 µM (hERG (KCNH2) [29]): 4.2%; inhibition at 50 µM (hERG (KCNH2) [30]): 29%; solubility kinetic at 20 h, 100 µM [31]: 1 µM (≈ 0.497 µg/mL) |
| Cc1[nH]c(C(=O)Nc2nc3c(OCc4ccccc4)cc(C(=O)O)cc3s2)c(Cl)c1Cl | – | – | – | – | – | – | – | – | – | – | Activity ([7]; time 6.0 day): inactive; IC50 [12]: 5.1 nM |
| Cc1[nH]c(C(=O)Nc2nc3c(OC4CCNC4)cc(C(=O)O)cc3s2)c(Cl)c1Cl (stereo unspecified) | > 20 µM | 10 µM (≈ 4.55 µg/mL) | 2.5 µM (≈ 1.14 µg/mL) | 130 µM (≈ 59.2 µg/mL) | > 130 µM | > 130 µM | > 130 µM | > 130 µM | 102% | 102% | MIC90 (Escherichia coli [21]): 130 µM (≈ 59.2 µg/mL) |
